# Laboratory results taken from US10092590B2, “Composition of HMB and ATP and methods of use” (Metabolic Technologies, Inc., priority 2012, dated 2018).
# Experiments:
# [1] = Perceived Recovery Status (PRS) scale; type: in vivo, human; conditions: over the 12-week study
# Protocol: (§1) Prior to the study, participants were randomly assigned to receive either 3 g per day of HMB Free Acid (HMB) (combined with food-grade orange flavors and sweeteners), 400 mg per day of ATP (PEAK ATP®; TSI, Inc.), a combination of both 3 g of HMB and 400 mg per day of ATP, or a placebo (food-grade orange flavors and sweeteners) divided equally into three servings daily with the first serving given 30 minutes prior to exercise and the remaining two servings daily with the mid-day and evening meals. On the non-training days participants were instructed to consume one serving with each of three separate meals. The supplementation was continued daily throughout the training and testing protocols. Each serving was formulated with 1 gram of HMB free acid to account for fill and emptying variation and achieve a minimum effective dosage of 0.800 grams. This dosage would be equivalent to a 1 gram Ca-HMB dosage.
# Perceived Recovery Status (PRS) scale was measured at weeks 0, 4, 8, 9, 10, and 12 to assess subjective recovery during the training phases. The PRS scale consists of values between 0-10, with 0-2 being very poorly recovered and with anticipated declines in performance, 4-6 being low to moderately recovered and expected similar performance, and 8-10 representing high perceived recovery with expected increases in performance.
# [2] = Body composition by dual x-ray absorptiometry (weight, lean body mass, fat); type: in vivo, human
# [3] = Skeletal muscle hypertrophy, ultrasonography quadriceps muscle thickness (VL and VI); type: in vivo, human; conditions: week 8 of study
# creatine kinase (CK) = experiment: Serum creatine kinase (muscle damage), colorimetric; type: in vivo, human; conditions: week 9 (overreaching); mean ± SEM
# Protocol: as §1, with “dosage. […]” for “dosage.”
# (§2) Samples were thawed one time and analyzed in duplicate for each analyte. […] All hormones were measured in the same assay on the same day to avoid compounded interassay variance. […] Serum creatine kinase (CK) was measured using colorimetric procedures at 340 nm (Diagnostics Chemicals, Oxford, Conn.). Twenty-four hour urine collections were made and 3-methylhistine was determined by previously described methods (Rathmacher et al 1992 and Wilson et al, 2013).
# cortisol = experiment: Serum cortisol, ELISA; type: in vivo, human; conditions: week 9 (overreaching); mean ± SEM
# Protocol: as §1, with “dosage. […]” for “dosage.”
# as §2
# total testosterone = experiment: Serum total testosterone, ELISA; type: in vivo, human; conditions: week 9 (overreaching); mean ± SEM
# Protocol: as §1, with “dosage. […]” for “dosage.”
# as §2
# [4] = test system: skeletal muscle protein synthesis; conditions: acute ingestion of 2.4 grams; cited from earlier work
SMILES,effect on PRS [1],DXA LBM ([2]; week 4 of study) [kg],DXA Fat ([2]; week 8 of study) [%],DXA LBM ([2]; week 8 of study) [kg],Quad (quadriceps muscle thickness) [3] [mm],CK (creatine kinase (CK)) [IU/L],Cortisol (cortisol) [µg/dL],Total Testosterone (total testosterone) [ng/dL],decrease in protein breakdown [4] [%],increase in skeletal muscle protein synthesis [4]
"Nc1ncnc2c1ncn2[C@@H]1O[C@H](COP(=O)(O)OP(=O)(O)OP(=O)(O)O)[C@@H](O)[C@H]1O [ATP, Adenosine-5′-triphosphate]",no main effect,,,,,,,,,
"CC(C)(O)CC(=O)O [HMB-FA, β-hydroxy-β-methylbutyric acid]",,69.2 ± 2.7,15.9 ± 1.5,71.3 ± 2.7,56.0 ± 1.4,288 ± 18,19.6 ± 1.1,752 ± 61,−56,+70%
